# Tests used:
# IKK-β C46A mutant mice = test: DNFB-induced delay-type hypersensitivity test with immunohistochemical staining, mutant mice; type: in vivo, mouse; settings: homozygous IKK-β C46A mutant mice
# From the text: (§1) Delay-Type Hypersensitivity Test and Immunohistochemical Staining.
# (§2) The in vivo anti-inflammatory effect of DMY on CD4^+ and CD8^+ lymphocytes is examined by administering this inhibitor to the mouse with delay-type hypersensitivity (DTH) based on the previously described method. The ear samples of DTH mice are fixed in 4% neutral-buffered formalin. Each sample is cut longitudinally into half and embedded in paraffin (Panreac), and then cut into 5 μm sections. Immunohistochemical staining is performed on slides.
# IKK-β C46A mutant = biological target: T1, IKK-β C46A mutant (Homo sapiens, UniProt O14920, C46A); test: IKK-β kinase assay (K-LISA IKKβ-Inhibitor Screening Kit) on cysteine mutants; type: biochemical; settings: FIG. 6a
# T1 construct: FLAG; made in house
# T1 sequence (O14920 1-756 C46A): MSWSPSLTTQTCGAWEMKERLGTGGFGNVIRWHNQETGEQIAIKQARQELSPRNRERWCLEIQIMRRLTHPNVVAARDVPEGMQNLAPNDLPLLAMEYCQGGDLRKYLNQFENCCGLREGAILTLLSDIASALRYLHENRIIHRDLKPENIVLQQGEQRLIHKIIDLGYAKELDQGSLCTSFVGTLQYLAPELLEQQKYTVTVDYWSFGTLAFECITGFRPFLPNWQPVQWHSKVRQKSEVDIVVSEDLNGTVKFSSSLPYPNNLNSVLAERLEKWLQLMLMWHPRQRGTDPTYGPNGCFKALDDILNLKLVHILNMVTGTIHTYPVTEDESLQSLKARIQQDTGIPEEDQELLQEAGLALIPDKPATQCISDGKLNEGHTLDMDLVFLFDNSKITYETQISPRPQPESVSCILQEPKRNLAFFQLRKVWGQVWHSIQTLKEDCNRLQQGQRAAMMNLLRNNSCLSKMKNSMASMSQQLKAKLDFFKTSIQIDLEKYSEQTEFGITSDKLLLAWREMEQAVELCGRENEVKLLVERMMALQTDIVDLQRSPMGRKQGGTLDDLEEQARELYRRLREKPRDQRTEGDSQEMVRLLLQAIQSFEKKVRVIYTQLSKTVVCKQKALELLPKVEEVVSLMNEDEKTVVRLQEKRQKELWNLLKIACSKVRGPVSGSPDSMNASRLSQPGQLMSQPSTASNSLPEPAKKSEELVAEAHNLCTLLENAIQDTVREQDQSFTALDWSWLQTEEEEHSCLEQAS
# Protocol: IKK-β kinase assay is performed using a K-LISA™ IKKβ-Inhibitor Screening Kit (Calbiochem).
# To determine the specificity to which cysteine residue(s) on IKK-β for the inhibitory action of a well-known inhibitor, DMY, all other 15 single point mutation IKK-β constructs with cysteine (C) residues are replaced with alanine (A) by site-directed mutagenesis (FIG. 6a), except Cys-46.
# IKK-β+/+ mice = test: DNFB-induced delay-type hypersensitivity test with immunohistochemical staining, wild-type mice; type: in vivo, mouse; settings: DNFB-induced DTH, FIG. 7
# From the text: as §1, §2
# CIA rats = test: Collagen-II induced arthritis (CIA) rat model; type: in vivo
# Protocol: Experimental arthritis induced by collagen-II in rats. CIA is induced in female Wistar rats. Dexamethasone (DEX, 0.1 mg/kg), methotrexate (MTX, 3.75 mg/kg, twice per week) and indomethacin (Indo, 1 mg/kg) are used as reference drugs.
# [1] = test system: IKK-β (wt) / NF-κB signaling; test: Western blotting of TNF-α-stimulated IKK-β−/− MEFs transfected with IKK-β wild-type; type: cell-based, mouse; settings: DMY pretreatment 60 min, FIG. 6c
# Protocol: Western Blotting Analysis.
# IKK-β^−/− deficient mouse embryonic fibroblasts (MEFs) are provided as a gift by Prof. Michael Karin (University of California, San Diego). IKK-β^−/− deficient MEFs transfected with IKK-β wild-type or mutant C46A constructs are pretreated with DMY at 37° C. for 60 min, and then the cells are stimulated with TNF-α and harvested for western blotting analysis. The expressions of IκBα, p-p65^ser536, FLAG-IKK-β and actin are detected with their specific antibodies.
structure (smiles),measurement,setting,value
"O=C1c2c(O)cc(O)cc2O[C@H](c2cc(O)c(O)c(O)c2)[C@H]1O [DMY, dihydromyricetin]",anti-inflammatory potency in DTH responses,IKK-β C46A mutant mice,diminished anti-inflammatory potency
same,kinase inhibitory effect (phosphorylation of IκBα),IKK-β C46A mutant,abrogates the kinase inhibitory effect
same,number of CD8+ lymphocytes in ear sections,IKK-β+/+ mice,gradually decreases
same,NF-κB signaling in the knee synovial tissues,"CIA rats; CIA rats, FIG. 8c",significantly suppress
same,organ indexes,"CIA rats; CIA rats, FIG. 8d",no adverse impairment
same,body weight,"CIA rats; CIA rats, compared to vehicle- and reference reagents-treated animals, FIG. 8e",prevent loss of body weight
same,hind paw volumes,"CIA rats; compared to vehicle-treated CIA rats, FIG. 8a",significantly decrease
same,arthritic scores,"CIA rats; compared to vehicle-treated CIA rats, FIG. 8b",significantly decrease
same,TNF-α-induced phosphorylation of NF-κB p65 and degradation of IκBα,[1],suppression of TNF-α-induced phosphorylation of NF-κB p65 and degradation of IκBα
